Patent US20160017011A1, “PHF20 AND JMJD3 COMPOSITIONS AND METHODS OF USE IN CANCER IMMUNOTHERAPY” (priority 2013, published 2016)
Residues, ends and D or L forms follow the SMILES beside them. *: point of attachment. Cbz = O=C(OCc1ccccc1)*

How the values were obtained:
[1] = system: PHF20938-946-specific CD8+ T cells; test: Recognition of peptide-pulsed T2 cells by PHF20-specific T cells (IFN-γ release); assay type: cell-based, human; conditions: T cells generated from PBMCs of HLA-A2+ healthy donors; FIG. 9A
Description: (FIG. 9A) PHF20938-946-specific CD8^+ T cells were generated from normal donor PBMCs after in vitro stimulation with PHF20 peptides, and used to determine the recognition of T2 cells loaded with different concentrations of PHF20938-946, peptide, or a control peptide as a negative control. (FIG. 9B) PHF20938-946-specific T cells were cultured alone in medium or co-incubated with HLA-A2^+ PHF20^+ (MCF-7) or HLA-A2^− PHF20^+ (DU4475, MDA-MB-361) breast cancer cell lines. A normal breast epithelial cell line MCF-10A is included as a control. T cell activity was determined by measuring cytokine (IFN-γ) release. (FIG. 9C) PHF20938-946-specific CD8^+ T cells were tested for cytotoxicity against MCF-7 by the LDH assay. HLA-A2 negative PHF20^+ PC3 cells were used as a negative control in the LDH assay. Data are plotted as means t SD. Results are representative of three independent experiments. *P<0.05, **P<0.01, ***P<0.001 versus controls.
Furthermore, PHF20-specific T cells could lyse HLA-A2^+ and PHF20^+ MCF-7 breast cancer cells (FIG. 9C).

iPSC colony formation = iPSC colony formation and cell death after MG132 treatment; assay type: cell-based
Description: Mouse iPSCs were generated as previously described (Takahashi et al., 2007a) with some minor modifications. Briefly, MEFs (1-8×10^4/well) were seeded on irradiated-MEFs in a 6-well plate. On the next day, the cells were transduced with an equal amount of lentiviruses expressing the four factors and rtTA. The following day, transduced-MEFs were cultured with mESC medium containing 2 μg/mL Dox for 14 days. Tet-O-4F MEFs were used to generate iPSCs by treating MEFs with Dox in mESC medium. The efficiency of iPSC formation as calculated based on the number of AP positive iPSC colonies and the initial cell number of seeded MEFs. Human iPSCs were generated as previously described (Park et al., 2008).
(§1) Jmjd3-Trim26 is responsible for the enhanced reprogramming efficiency observed in Jmjd3-1-MEFs or in Dox-treated Tet-O-PHF20 MEFs.

PHF20 protein = PHF20 protein amounts after MG132 treatment; assay type: cell-based; conditions: even when both Trim26 and Jmjd3 were overexpressed
Text: as §1

Compound | recognition of peptide-pulsed cells by PHF20-specific T cells [1] | cell death (iPSC colony formation; MG132 treatment during reprogramming) | iPSC colony formation (iPSC colony formation; after MG132 treatment) | amounts of PHF20 protein (PHF20 protein)
WQFNLLTHV (PHFP 2) | capable of recognizing |  |  | 
CC(C)C[C@@H](C=O)NC(=O)[C@H](CC(C)C)NC(=O)[C@H](CC(C)C)NC(=O)OCc1ccccc1 [MG132] (Cbz-Leu-Leu-Leu-aldehyde) |  | caused cell death | no iPSC colony formation was observed | increased the amounts of PHF20 protein
